# Results: paper PMC6570535 (ACS infectious diseases, 2019)
# No end group written: not given here.
# Tests used:
# fsr QS circuitry [1] = biological target: T1, fsr QS circuitry (Enterococcus faecalis, UniProt A0ACD6TCR9); settings: read-out: EC50 [95% CI]; previously published analog shown for comparison; ref [19]; cited from earlier work
# fsr QS circuitry [2] = biological target: T1, fsr QS circuitry; experiment: β-galactosidase reporter assay, inhibition of competitor GBAP signal; type: cell-based, E. faecalis; settings: competition with GBAP
# fsr QS circuitry [3] = biological target: T1, fsr QS circuitry; experiment: β-galactosidase cell-based bacterial reporter assay, QS activation; settings: E. faecalis pGelE-lacZ reporter strain
Substance,EC50 (fsr QS circuitry [1]) [nM],inhibitory activity (fsr QS circuitry [2]),activity as activator (fsr QS circuitry [3])
"Ac-GBAP-Des(Q1N2) (Ac-SPNIFGQWM; also: cyclic, ring not given here) [Peptide 2]",1.01,–,–
Ac-GBAP-Des(Q1N2)[N-MeG8] [Peptide 7],–,neither of these three analogs exhibit any inhibitory activity,lost all activity
Ac-GBAP-Des(Q1N2)[N-MeQ9] [Peptide 8],–,neither of these three analogs exhibit any inhibitory activity,lost all activity
GBAP-F7A,> 1000,–,–
